The values that follow are results of earlier work, collected in patent publication US7060710B2, “Isoxazole pyrazoloindane derivatives as cognition enhancing GABAA α5 subtype ligands” (Merck Sharp & Dohme Ltd., priority 2001, dated 2006).

The conditions of data set [1]: background statement.
For data set [2] the following is noted: reported by McNamara and Skelton.

For `COC(=O)c1cc2c(cn1)[nH]c1ccccc12` [β-CCM], the proconvulsant activity entry in data set [1] is recorded as “proconvulsant”. In addition, the “spatial learning in the Morris watermaze” value in data set [2] is listed as “enhanced spatial learning”.
